≈ marks a conversion by molar mass, not a printed value.
Experiments:
[1] = test system: Treponema hyodysenteriae; test: Minimum inhibiting concentration against Treponema hyodysenteriae, agar diffusion test with dilution series; type: cell-based
Experimental: In order to detect the surprising effect on Treponema hyodysenteriae, this microorganism was cultivated according to the method of Harris on a trypticase-soy-agar using an addition of horse blood of 5% in a CO2 /H2 atmosphere, and the minimum inhibiting concentration of Salinomycin was determined in the agar diffusion test, while using the corresponding dilution series, as compared against commercial preparations showing a particularly good effect in dysentery diseases.

[2] = test system: specified microorganisms; details: antibacterial spectrum, J. Antibiotics 1974; cited from earlier work
[3] = Feeding test with Salinomycin as raw product: growth and feed efficiency in early weaned piglets (Example 2); type: in vivo; details: for statistical significance of the improvement (weight gain and feed efficiency): vs control; for Feed efficiency per animal, relative / Weight gain per animal, relative: relative to control
Experimental: A feeding test using Salinomycin as a raw product was carried out on 46 piglets weaned at an early age (4 weeks old) that were kept in sub-groups comprising 3 or 4 animals.
Initial weight: 9.8 kg on an average. The feed ration indicated in Example 1 served as basic feed.
4 Sub-groups comprising 15 animals altogether formed the untreated control group. 4 Sub-groups comprising 16 animals altogether were given 25 mg of Salinomycin as raw product per kg of feed, and 4sub-groups comprising 15 animals altogether were given 50 mg of Salinomycin per kg of feed in the form of the raw product. The test period was 8 weeks, with individual weighing at intervals of 2 weeks.

[4] = Piglet test S 83/75: incidence of diarrhea in feeding test (Example 1); type: in vivo, piglets
Experimental: A feeding test using Salinomycin was carried out on 78 piglets which were kept in boxes with 4 (or 3) animals each. At the beginning of the test, the animals were about 4 weeks old. Four replicates formed one group, and the following treatments were carried out:
1st group: untreated control group
2nd group: Salinomycin as raw product 25 mg/kg of fodder
3rd group: Salinomycin as raw product 50 mg/kg of fodder
4th group: Salinomycin as mycelium 50 mg/kg of fodder
5th group: comparison preparation A 50 mg/kg of fodder (5-Nitromidazol)
The basic feed had the following composition:
The occurrence of diarrhea in the individual boxes (sub-groups) was registered in the test periods of 14 days each and in the total test run of 56 days.

[5] = Feeding test with Salinomycin as mycelium: growth and feed efficiency in early weaned piglets (Example 3); type: in vivo; details: for Feed efficiency per animal, relative / Weight gain per animal, relative: relative to control
Experimental: A feeding test using Salinomycin as a mycelium was carried out on 47 piglets weaned at an early age (4 weeks old) which were kept in sub-groups comprising 4 and 3 animals, respectively. The initial weight was 9.8 kg on an average. The feed ration indicated in Example 1 served as basic feed.
4 Sub-groups comprising 15 animals altogether formed the untreated control group. 4 Sub-groups comprising 16 animals altogether were given 50 mg of Salinomycin as a mycelium per kg of feed, and 4 sub-groups comprising 16 animals altogether were given 50 mg of a comparison preparation A (5-Nitroimidazol) per kg of feed. The test period was 8 weeks, with individual weighing at intervals of 2 weeks.

[6] = raw product 25 ppm, 8 weeks, ++ 99% significance
[7] = raw product 50 ppm, 8 weeks, +++ 99.9% significance
[8] = 50 mg per kg of feed as mycelium, 8 weeks
[9] = 50 ppm (Salinomycin as mycelium), 2 weeks
[10] = 50 ppm (Salinomycin as mycelium), 4 weeks
[11] = 50 ppm (Salinomycin as mycelium), 6 weeks
[12] = 50 ppm (Salinomycin as mycelium), 8 weeks

## CC[C@@H](C(=O)[C@@H](C)[C@@H](O)[C@H](C)[C@@H]1O[C@@H]([C@@H](CC)C(=O)O)CC[C@@H]1C)[C@H]1O[C@]2(C=C[C@@H](O)[C@]3(CC[C@@](C)([C@H]4CC[C@](O)(CC)[C@H](C)O4)O3)O2)[C@H](C)C[C@@H]1C [Salinomycin]
[1]; Brachyspira hyodysenteriae, read-out: Minimum inhibiting concentration (MIC)
  MIC: 0.05 µg/mL (≈ 0.0666 µM)
[1]; compared against commercial preparations, Table 1
  effect on Treponema hyodysenteriae: superior effect
[2]
  effect against the specified microorganisms: only an insiginificant or moderate effect
[3]; raw product 25 mg per kg of feed
  statistical significance of the improvement (weight gain and feed efficiency): 99%
[3]; raw product 50 mg per kg of feed
  statistical significance of the improvement (weight gain and feed efficiency): 99.9%
[3]; raw product 25 ppm, 2 weeks
  Daily weight gain per animal: 171 g
  Feed efficiency per animal, absolute: 1.900
  Weight gain per animal, absolute: 2.4 kg
  Feed efficiency per animal, relative: 95.8%
  Weight gain per animal, relative: 104.3%
[3]; raw product 25 ppm, 4 weeks
  Daily weight gain per animal: 250 g
  Feed efficiency per animal, absolute: 1.800
  Weight gain per animal, absolute: 7.0 kg
  Feed efficiency per animal, relative: 95.7%
  Weight gain per animal, relative: 104.6%
[3]; raw product 25 ppm, 6 weeks
  Daily weight gain per animal: 317 g
  Feed efficiency per animal, absolute: 1.802
  Weight gain per animal, absolute: 13.0 kg
  Feed efficiency per animal, relative: 96.9%
  Weight gain per animal, relative: 103.3%
[3]; raw product 25 ppm, 8 weeks
  Daily weight gain per animal: 380 g
  Feed efficiency per animal, absolute: 1.898
  Weight gain per animal, absolute: 21.3 kg
[3]; [6]
  Feed efficiency per animal, relative: 96.2%
  Weight gain per animal, relative: 103.8%
[3]; raw product 50 ppm, 2 weeks
  Daily weight gain per animal: 171 g
  Feed efficiency per animal, absolute: 1.900
  Weight gain per animal, absolute: 2.4 kg
  Feed efficiency per animal, relative: 95.8%
  Weight gain per animal, relative: 104.3%
[3]; raw product 50 ppm, 4 weeks
  Daily weight gain per animal: 257 g
  Feed efficiency per animal, absolute: 1.750
  Weight gain per animal, absolute: 7.2 kg
  Feed efficiency per animal, relative: 93.0%
  Weight gain per animal, relative: 107.5%
[3]; raw product 50 ppm, 6 weeks
  Daily weight gain per animal: 337 g
  Feed efficiency per animal, absolute: 1.698
  Weight gain per animal, absolute: 13.8 kg
  Feed efficiency per animal, relative: 91.3%
  Weight gain per animal, relative: 109.8%
[3]; raw product 50 ppm, 8 weeks
  Daily weight gain per animal: 396 g
  Feed efficiency per animal, absolute: 1.821
  Weight gain per animal, absolute: 22.2 kg
[3]; [7]
  Feed efficiency per animal, relative: 92.3%
  Weight gain per animal, relative: 108.2%
[4]; 50 ppm (Salinomycin as mycelium), 1st and 2nd week
  Incidence of diarrhea, per cent of test days: 19.6%
[4]; 50 ppm (Salinomycin as mycelium), 1st and 2nd week, of 56 test days
  Incidence of diarrhea in test days: 11 days
[4]; 50 ppm (Salinomycin as mycelium), 1st through 8th week
  Incidence of diarrhea, per cent of test days: 10.7%
[4]; 50 ppm (Salinomycin as mycelium), 1st through 8th week, of 224 test days
  Incidence of diarrhea in test days: 24 days
[4]; 50 ppm (Salinomycin as mycelium), 3rd and 4th week
  Incidence of diarrhea, per cent of test days: 5.4%
[4]; 50 ppm (Salinomycin as mycelium), 3rd and 4th week, of 56 test days
  Incidence of diarrhea in test days: 3 days
[4]; 50 ppm (Salinomycin as mycelium), 5th and 6th week
  Incidence of diarrhea, per cent of test days: 7.1%
[4]; 50 ppm (Salinomycin as mycelium), 5th and 6th week, of 56 test days
  Incidence of diarrhea in test days: 4 days
[4]; 50 ppm (Salinomycin as mycelium), 7th and 8th week
  Incidence of diarrhea, per cent of test days: 10.7%
[4]; 50 ppm (Salinomycin as mycelium), 7th and 8th week, of 56 test days
  Incidence of diarrhea in test days: 6 days
[4]; depending on the dosage, against untreated control and comparison preparation
  influence on the incidence of diarrhea: very good influence on the incidence of diarrhea
[4]; raw product 25 ppm, 1st and 2nd week
  Incidence of diarrhea, per cent of test days: 48.2%
[4]; raw product 25 ppm, 1st and 2nd week, of 56 test days
  Incidence of diarrhea in test days: 27 days
[4]; raw product 25 ppm, 1st through 8th week
  Incidence of diarrhea, per cent of test days: 60.3%
[4]; raw product 25 ppm, 1st through 8th week, of 224 test days
  Incidence of diarrhea in test days: 135 days
[4]; raw product 25 ppm, 3rd and 4th week
  Incidence of diarrhea, per cent of test days: 46.6%
[4]; raw product 25 ppm, 3rd and 4th week, of 56 test days
  Incidence of diarrhea in test days: 26 days
[4]; raw product 25 ppm, 5th and 6th week
  Incidence of diarrhea, per cent of test days: 69.6%
[4]; raw product 25 ppm, 5th and 6th week, of 56 test days
  Incidence of diarrhea in test days: 39 days
[4]; raw product 25 ppm, 7th and 8th week
  Incidence of diarrhea, per cent of test days: 76.8%
[4]; raw product 25 ppm, 7th and 8th week, of 56 test days
  Incidence of diarrhea in test days: 43 days
[4]; raw product 50 ppm, 1st and 2nd week
  Incidence of diarrhea, per cent of test days: 12.5%
[4]; raw product 50 ppm, 1st and 2nd week, of 56 test days
  Incidence of diarrhea in test days: 7 days
[4]; raw product 50 ppm, 1st through 8th week
  Incidence of diarrhea, per cent of test days: 19.1%
[4]; raw product 50 ppm, 1st through 8th week, of 224 test days
  Incidence of diarrhea in test days: 43 days
[4]; raw product 50 ppm, 3rd and 4th week
  Incidence of diarrhea, per cent of test days: 12.5%
[4]; raw product 50 ppm, 3rd and 4th week, of 56 test days
  Incidence of diarrhea in test days: 7 days
[4]; raw product 50 ppm, 5th and 6th week
  Incidence of diarrhea, per cent of test days: 28.6%
[4]; raw product 50 ppm, 5th and 6th week, of 56 test days
  Incidence of diarrhea in test days: 16 days
[4]; raw product 50 ppm, 7th and 8th week
  Incidence of diarrhea, per cent of test days: 23.2%
[4]; raw product 50 ppm, 7th and 8th week, of 56 test days
  Incidence of diarrhea in test days: 13 days
[5]; [8]
  statistical significance of the improvement of the feed efficiency: 99%
  statistical significance of the improvement of the weight development: 99.9%
[5]; [9]
  Daily weight gain per animal: 164 g
  Feed efficiency per animal, absolute: 1.983
  Weight gain per animal, absolute: 2.3 kg
  Feed efficiency per animal, relative: 100.0%
  Weight gain per animal, relative: 100.0%
[5]; [10]
  Daily weight gain per animal: 261 g
  Feed efficiency per animal, absolute: 1.726
  Weight gain per animal, absolute: 7.3 kg
  Feed efficiency per animal, relative: 91.8%
  Weight gain per animal, relative: 109.2%
[5]; [11]
  Daily weight gain per animal: 332 g
  Feed efficiency per animal, absolute: 1.723
  Weight gain per animal, absolute: 13.6 kg
  Feed efficiency per animal, relative: 92.6%
  Weight gain per animal, relative: 108.1%
[5]; [12]
  Daily weight gain per animal: 393 g
  Feed efficiency per animal, absolute: 1.837
  Weight gain per animal, absolute: 22.0 kg
[5]; 50 ppm (Salinomycin as mycelium, ++ 99% significance), 8 weeks
  Feed efficiency per animal, relative: 93.2%
[5]; 50 ppm (Salinomycin as mycelium, +++ 99.9% significance), 8 weeks
  Weight gain per animal, relative: 107.4%

Reference: patent US4291053A, “Agent to be administered orally to domestic animals without cellulose digestion in the rumen” (Hoechst Aktiengesellschaft, priority 1976, dated 1981)
